The source of these data is US9266817B2, “Catecholamine derivatives for obesity and neurological disorders” (EMORY UNIVERSITY, priority 2009, dated 2016).

In assay [1] the target is T1, TrkB (Rattus norvegicus, UniProt Q63604).
T1 construct: endogenous in cells; host or cells: primary rat cortical and hippocampal neurons
The assay is described as follows: Immunoblotting of TrkB phosphorylation in primary cortical neurons treated with catecholamines. The format is cell-based. The procedure:
Primary cultured rat cortical neurons were prepared as follows. E17 rat pups were decapitated and cortex was extirpated, cross chopped and suspended by pipetting for separation in 5% fetal calf serum (FCS), 5% horse serum (HS) DMEM. The cell suspension was then centrifuged at 250×g for 5 min. This operation was repeated. Cells were seeded into polyethyleneimine-coated 10 cm^2 dishes and 12-well plates including coated-coverslips and incubated at 37° C. in 5% CO2/95% air. After 3 hours, the culture medium was changed to Neurobasal containing B-27 supplement (Invitrogen; Carlsbad, Calif.) and incubated for 4 days. For maintenance, half of the culture medium was changed to fresh Neurobasal/B27 in every 4 days. After 1 week, the dished cultured neurons were ready for use.
(§1) To explore whether monoamine neurotransmitters, including catecholamines (see, e.g., FIG. 1), could stimulate TrkB activation, hippocampal neurons were treated with 300 nM of catecholamines, serotonin, and melatonin for 30 min.

For assay [2], the target named is T2, TrkB (Mus musculus, UniProt P15209, F616A).
T2 construct: from tissue; host or cells: mouse brain
The format is in vivo. Particulars: L-DOPA 50 mg/kg, DOPS 100 mg/kg, 1NMPP1 50 μM. The procedure: The DOPS concentration was 20 mg/ml, the vitamin C concentration was 2 mg/ml, and the benserazide concentration was 5 mg/ml. The vitamin C prevents oxidation of the DOPS, and the benserazide is a peripheral inhibitor of AADC and restricts the production of NE from DOPS to the brain. The compounds were added to a tube, and 20 μl of 10 M HCl was added to each ml of DOPS solution. The appropriate amount of water was added to the tube, and then HCl was added to achieve the desired volume. For example, to make 1 mL of a DOPS solution, 20 mg DOPS, 2 mg vitamin C, and 5 mg benserazide were added to a tube, followed by 980 μL of water and 20 μL of 10 M HCl. The solution was vortexed until all DOPS was dissolved. The DOPS solution was injected subcutaneously in a volume of 50 μl/g of mouse. The appropriate amount of DOPS solution was pipetted into a clean tube, followed by the amount of 10 M NaOH required to exactly neutralize the HCl. The solution was then shaken. The amount of 10 M NaOH is the weight of the mouse in microliters. For example, for a 20 g mouse, pipet 1 ml of the DOPS solution is pipetted into a tube and 20 μL of 10 M NaOH is added. For a 30 g mouse, 1.5 mL of the DOPS solution is pipetted into a tube and 30 μl of 10 M NaOH is added. Two to four month-old TrkBF616A mice were pretreated with 1NMPP1 in drinking water (50 μM) 1 day before L-DOPA (50 mg/kg) or DOPS (100 mg/kg) intraperitoneal injection. At times of 2 hours and 5 hours after drug administration, the L-DOPA or DOPS-treated mice were sacrificed, respectively. The brain lysates were prepared and analyzed by immunoblotting against anti-phospho-TrkB Y816 and TrkA Y794 antibodies.
TrkB F616A mice were pretreated with 1NMPP1 (50 μM) before L-DOPA or DOPS administration.

Another assay concerns the target T3, TrkA (Mus musculus, UniProt Q3UFB7).
T3 construct: from tissue; host or cells: mouse brain
Description: TrkA activation in mouse brain after DOPS (control). The format is in vivo. The conditions noted are these: wild-type and DBH -/- mice. Here is the method: Mice lacking dopamine β-hydroxylase (DBH) are unable to synthesize noradrenaline (essential for mouse fetal development) or adrenaline and die in utero. Administration of DOPS, which can be converted to noradrenaline in the absence of DBH, rescued DBH −/− mice from dying. Mature DBH −/− mice can live without supplemental of DOPS. […] In wild-type control mice, DOPS induced TrkB activation in a time dependent manner with the maximal effect at 12 hours. In contrast, DOPS-triggered TrkB activation occurred at 1 hour, peaked at 5 hours, and decreased at 12 hours in DBH −/− mice. As a control, TrkA was not activated.

For the next assay, the system named is BDNF. The assay is described as follows: Quantitative analysis of BDNF in mouse brain during drug treatment. Format: in vivo, mice. Particulars: during the drug treatment.
The test system of assay [3] is TrkB. The format is in vivo.
Assay [4] addresses T4, TrkB (Homo sapiens, UniProt Q16620). The assay is described as follows: TrkB activation by catecholamines in TrkB-transfected HEK293 cells pretreated with OCT3 inhibitor. The conditions noted are these: 2 μM, 30 minutes pretreatment, catecholamines 15 minutes. Format: cell-based. Also noted: expressed in transfected cells; host or cells: HEK293. The procedure:
HEK293 cells were transfected with TrkB and pretreated with the OCT3 inhibitor decynium (2 μM) for 30 minutes, followed by stimulation with catecholamines for 15 minutes. The cell lysates were monitored by immunoblotting with anti-p-TrkB-Y-816. […] An equal amount of TrkB was expressed in each sample (FIG. 22A, lower panel).
Target sequence in this assay (Q16620 32-822, species assumed): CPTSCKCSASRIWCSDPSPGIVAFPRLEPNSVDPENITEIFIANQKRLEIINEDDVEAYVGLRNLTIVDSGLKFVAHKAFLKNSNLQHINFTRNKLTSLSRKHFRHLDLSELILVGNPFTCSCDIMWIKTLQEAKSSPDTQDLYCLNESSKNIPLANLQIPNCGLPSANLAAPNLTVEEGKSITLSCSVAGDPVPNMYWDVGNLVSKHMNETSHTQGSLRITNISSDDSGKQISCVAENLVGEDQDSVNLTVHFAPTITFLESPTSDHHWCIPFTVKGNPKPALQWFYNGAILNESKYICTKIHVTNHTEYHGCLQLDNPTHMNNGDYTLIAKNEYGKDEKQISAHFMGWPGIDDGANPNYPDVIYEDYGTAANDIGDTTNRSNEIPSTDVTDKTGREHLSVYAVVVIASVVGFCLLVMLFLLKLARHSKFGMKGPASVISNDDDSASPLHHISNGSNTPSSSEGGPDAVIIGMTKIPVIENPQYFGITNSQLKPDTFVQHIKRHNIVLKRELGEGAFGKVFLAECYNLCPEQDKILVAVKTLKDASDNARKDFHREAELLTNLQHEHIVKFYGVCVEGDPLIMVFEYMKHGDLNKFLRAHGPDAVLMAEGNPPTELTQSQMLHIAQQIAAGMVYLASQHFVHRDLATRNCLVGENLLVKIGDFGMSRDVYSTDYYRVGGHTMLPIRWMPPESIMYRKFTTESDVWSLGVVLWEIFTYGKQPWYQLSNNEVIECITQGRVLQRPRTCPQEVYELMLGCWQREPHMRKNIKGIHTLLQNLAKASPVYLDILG

Assay [5] deals with T1, TrkB. Description: Immunofluorescent staining with anti-phospho-TrkB Y816 in primary hippocampal neurons. Format: cell-based. The conditions noted are these: 300 nM, 30 min. Here is the method:
Primary Rat Cortical and Hippocampal Neuron Cultures
Primary hippocampal neurons were seeded on poly-L-lysine coated coverslips in a 12-well plate. After 7 days in vitro, the neurons were treated with 100 ng/ml BDNF or variety of neurotransmitters and 7,8-dihydroxyflavone compound (500 nM) for 30 min, and then washed with PBS. Cells were fixed with 3% formaldehyde in PBS at room temperature for 15 min. The cells were then permeabilized and blocked by 0.4% Triton X-100 and 2% FBS in PBS at room temperature for 15 minutes, washed with PBS three times and treated with anti-MAP2 (1:200) and anti-phospho-TrkB antibodies (1:100). After staining with FITC- or Rhodamine-conjugated secondary antibody, the coverslips were mounted on slides. Fluorescent images were taken by OLYMPUS IX71 fluorescence microscope (Olympus; Center Valley, Pa.).
as §1

The target in assay [6] is T1, TrkB. Description: TrkB activation in cortical neurons after pretreatment with antibodies, receptor antagonists, transporter inhibitors or EDTA (anti-p-TrkB-Y-816 immunoblot). Format: cell-based. Particulars: BDNF-IgG 30 minutes, then BDNF 10 ng/ml or catecholamines 100 nM, 15 minutes.
Text: (§2) Both antidepressants and exercise increase hippocampal BDNF mRNA expression through enhanced 5-HT and/or NE neurotransmission (Siuciak et al., Pharmacol. Biochem. Behav., 56:131-137, 1997; Dias et al., Neuropharmacology, 45:553-563, 2003; Ivy et al., Pharmacol. Biochem. Behav., 75:81-88, 2003; Garza et al., Pharmacol. Biochem. Behav., 77:209-220, 2004). If catecholamines activated TrkB signaling indirectly by promoting BDNF generation, then scavenging BDNF with its specific antibody would be expected to diminish catecholamines-mediated activation of TrkB. Cultured cortical neurons were pretreated with BDNF-IgG for 30 minutes followed by exposure to BDNF (10 ng/ml) or catecholamines (100 nM) for 15 minutes. […] It was then determined whether catecholamines could activate TrkB in neurons cultured from mice carrying a null mutation of BDNF.
To further investigate the specificity of catecholamines in inducing TrkB activation, cortical neurons were pretreated with control IgG or norepinephrine IgG, a rabbit polyclonal antibody for norepinephrine, followed by catecholamines.
It was then determined whether catecholamines could activate TrkB in neurons cultured from mice carrying a null mutation of NET.
(§3) The cell lysates were analyzed by immunoblotting with anti-p-TrkB-Y-816.
as §3
A group of primary cortical neurons were pretreated with 1 mM EDTA, and another group of primary cortical neurons were not pretreated. Both groups of primary cortical neurons were then treated with either Zn (100 μM) or a catecholamine (100 nM) for 15 minutes. The neuronal cell lysates were analyzed by immunoblotting with anti-p-TrkB-Y-816 antibody.
A general note: Immunoblotting shows a protein as a band on a membrane.

The target of assay [7] is T5, TrkB (Mus musculus, UniProt P15209).
T5 construct: endogenous in cells; host or cells: primary cortical neurons from BDNF-null, TrkB +/- cross, TrkC knockout and NET -/- mice
The assay is described as follows: TrkB activation in cortical neurons cultured from BDNF-null mice. The format is cell-based. The conditions noted are these: 15 min.
Text: as §2

Assay [8] concerns the target T4, TrkB. The assay is described as follows: TrkB dimerization, co-immunoprecipitation of GST-TrkB and HA-TrkB in HEK293 cells. Particulars: 15 minutes. The format is cell-based. Also noted: GST; HA; expressed in transfected cells; host or cells: HEK293. Here is the method:
To determine whether catecholamines bind TrkB directly, an in vitro binding assay was conducted with purified ECD (extracellular domain) and ICD (intracellular domain) proteins from Trk receptors and ^3H-catecholamines. […] To determine whether the binding by catecholamines to TrkB receptor caused dimerization, GST-TrkB was co-transfected into HEK293 cells with HA-TrkB, followed by BDNF or monoamines treatment for 15 minutes.
Target sequence in this assay (Q16620 32-822, species assumed): as above
Target sequence in this assay (Q16620 32-822, species assumed): as above

T1 sequence (Q63604 32-821): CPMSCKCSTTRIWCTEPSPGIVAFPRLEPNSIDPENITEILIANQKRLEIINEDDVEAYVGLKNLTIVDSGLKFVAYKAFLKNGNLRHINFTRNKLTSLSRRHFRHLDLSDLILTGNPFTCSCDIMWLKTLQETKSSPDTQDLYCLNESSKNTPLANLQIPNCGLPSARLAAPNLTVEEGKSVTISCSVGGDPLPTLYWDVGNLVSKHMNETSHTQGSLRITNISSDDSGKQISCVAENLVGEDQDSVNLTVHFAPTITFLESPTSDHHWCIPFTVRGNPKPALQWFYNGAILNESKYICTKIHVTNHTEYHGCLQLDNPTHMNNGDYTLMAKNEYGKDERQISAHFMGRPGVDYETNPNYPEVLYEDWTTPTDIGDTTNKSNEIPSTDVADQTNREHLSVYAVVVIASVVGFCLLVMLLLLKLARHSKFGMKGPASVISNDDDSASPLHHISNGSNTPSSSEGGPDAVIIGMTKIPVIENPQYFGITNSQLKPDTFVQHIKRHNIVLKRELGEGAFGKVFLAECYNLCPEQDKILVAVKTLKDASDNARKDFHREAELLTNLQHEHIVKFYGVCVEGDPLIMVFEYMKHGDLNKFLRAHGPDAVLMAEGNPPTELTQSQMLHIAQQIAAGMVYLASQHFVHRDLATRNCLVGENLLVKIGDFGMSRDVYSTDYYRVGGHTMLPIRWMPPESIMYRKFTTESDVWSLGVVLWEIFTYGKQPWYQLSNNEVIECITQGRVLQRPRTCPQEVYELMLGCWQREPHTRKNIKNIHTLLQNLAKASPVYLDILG
T3 sequence (Q3UFB7 34-799): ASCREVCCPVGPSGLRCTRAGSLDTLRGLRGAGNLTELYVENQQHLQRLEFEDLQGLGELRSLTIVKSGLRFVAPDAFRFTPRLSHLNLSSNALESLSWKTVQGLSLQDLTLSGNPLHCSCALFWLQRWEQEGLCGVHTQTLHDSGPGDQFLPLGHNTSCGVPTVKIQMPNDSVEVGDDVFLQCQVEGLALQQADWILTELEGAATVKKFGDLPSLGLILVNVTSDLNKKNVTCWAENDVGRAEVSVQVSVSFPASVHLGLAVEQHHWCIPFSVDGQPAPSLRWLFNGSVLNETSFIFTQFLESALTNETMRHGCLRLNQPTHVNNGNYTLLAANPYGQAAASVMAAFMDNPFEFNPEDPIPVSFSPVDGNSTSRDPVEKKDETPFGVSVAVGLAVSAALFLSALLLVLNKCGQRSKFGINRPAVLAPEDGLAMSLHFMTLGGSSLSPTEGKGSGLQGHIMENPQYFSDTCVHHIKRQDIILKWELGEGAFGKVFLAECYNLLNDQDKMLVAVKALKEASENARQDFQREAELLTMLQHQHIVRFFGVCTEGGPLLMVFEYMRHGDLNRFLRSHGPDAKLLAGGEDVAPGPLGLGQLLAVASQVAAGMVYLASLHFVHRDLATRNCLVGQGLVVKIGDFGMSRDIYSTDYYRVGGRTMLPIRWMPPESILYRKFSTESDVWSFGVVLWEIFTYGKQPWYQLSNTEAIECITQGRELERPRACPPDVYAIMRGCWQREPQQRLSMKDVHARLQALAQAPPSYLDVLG
T2 sequence (P15209 32-821 F616A): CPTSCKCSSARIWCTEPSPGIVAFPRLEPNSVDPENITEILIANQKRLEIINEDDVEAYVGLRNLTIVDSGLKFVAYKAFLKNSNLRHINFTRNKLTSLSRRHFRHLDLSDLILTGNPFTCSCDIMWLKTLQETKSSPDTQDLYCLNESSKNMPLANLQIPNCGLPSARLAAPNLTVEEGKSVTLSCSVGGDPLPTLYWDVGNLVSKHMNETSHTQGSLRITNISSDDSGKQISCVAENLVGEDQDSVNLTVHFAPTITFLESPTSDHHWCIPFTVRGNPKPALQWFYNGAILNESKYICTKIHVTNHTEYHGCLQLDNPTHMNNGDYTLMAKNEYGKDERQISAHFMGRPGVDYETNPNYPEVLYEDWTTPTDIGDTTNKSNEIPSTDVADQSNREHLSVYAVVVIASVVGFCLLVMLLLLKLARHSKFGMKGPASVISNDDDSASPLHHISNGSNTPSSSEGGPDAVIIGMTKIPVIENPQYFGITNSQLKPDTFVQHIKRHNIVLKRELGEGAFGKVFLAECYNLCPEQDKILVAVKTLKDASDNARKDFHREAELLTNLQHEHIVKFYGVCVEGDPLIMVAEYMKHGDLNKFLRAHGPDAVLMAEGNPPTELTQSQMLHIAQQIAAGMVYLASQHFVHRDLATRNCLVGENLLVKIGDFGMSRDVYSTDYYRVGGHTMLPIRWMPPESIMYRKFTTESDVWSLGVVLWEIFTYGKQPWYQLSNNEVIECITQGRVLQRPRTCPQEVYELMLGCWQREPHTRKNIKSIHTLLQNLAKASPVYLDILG
T5 sequence (P15209 32-821): as the sequence (P15209 32-821 F616A) above, with A585F counted along it

Regarding `N[C@H](C(=O)O)[C@H](O)c1ccc(O)c(O)c1` [DOPS, dihydroxyphenylserine], the “TrkB activation in primary cultured neurons” value on TrkB [1] is reported as “rapidly induced TrkB activation”. Moreover, the “TrkB tyrosine phosphorylation/activation in mice” value on TrkB [2] is “provoked evident TrkB activation”. Besides, at TrkA, the “TrkA activation in mouse brain” value is “not activated”. Also, the “BDNF in mouse brain” value with BDNF is “not significantly altered”. The “TrkB activation in BDNF -/- cortex” value in the assay on TrkB [3] (BDNF conditional knockout mice, compared to vehicle control) is recorded as “strongly triggered TrkB activation”. In the assay with TrkB [3] (DBH -/- mice, intraperitoneal), the “Time at which TrkB activation occurred” value amounted to 1 h, the “Time at which TrkB activation peaked” value was determined as 5 h and the “TrkB activation at 12 hours” value is “decreased”. Also, the “Time of maximal effect on TrkB activation” value with TrkB [3] (wild-type control mice, intraperitoneal) amounted to 12 h.
Turning to `CCN1/C(=C/c2ccc3ccccc3[n+]2CC)C=Cc2ccccc21.[I-]` [decynium], at TrkB [4], the “Effect of OCT3 inhibitor on TrkB activation by catecholamines” value is “failed to inhibit”.

B1: BDNF: Brain-derived neurotrophic factor, natural ligand of TrkB (protein, UniProt P23560 19-247, looked up)
Neurotrophic factor BDNF …: APMKEANIRGQGGLAYPGVRTHGTLESVNGPKAGSRGLTSLADTFEHVIEELLDEDQKVRPNEENNKDADLYTSRVMLSSQVPLEPPLLFLLEEYKNYLDAANMSMRVRRHSDPARRGELSVCDSISEWVTAADKKTAVDMSGGTVTVLEKVPVSKGQLKQYFYETKCNPMGYTKEGCRGIDKRHWNSQCRTTQSYVRALTMDSKKRIGWRFIRIDTSCVCTLTIKRGR
Take B1: in the assay with TrkB [5], the “TrkB tyrosine phosphorylation (immunofluorescent staining)” value was “strongly triggered TrkB tyrosine phosphorylation”. Also, in the assay with TrkB [6], the “Effect of BDNF-IgG pretreatment on phosphorylation of TrkB induced by the substance” value is reported as “abolished”. In addition, in the assay with TrkB [7], the “Activation of TrkB in BDNF-null cortical neurons” value was “evident activation of TrkB”. Also, the TrkB homodimerization entry in the assay with TrkB [8] is given as “elicited TrkB homodimerization”.
